One assay has as its target T1, Androgen receptor (Homo sapiens, UniProt P10275).
T1 sequence (P10275 whole entry): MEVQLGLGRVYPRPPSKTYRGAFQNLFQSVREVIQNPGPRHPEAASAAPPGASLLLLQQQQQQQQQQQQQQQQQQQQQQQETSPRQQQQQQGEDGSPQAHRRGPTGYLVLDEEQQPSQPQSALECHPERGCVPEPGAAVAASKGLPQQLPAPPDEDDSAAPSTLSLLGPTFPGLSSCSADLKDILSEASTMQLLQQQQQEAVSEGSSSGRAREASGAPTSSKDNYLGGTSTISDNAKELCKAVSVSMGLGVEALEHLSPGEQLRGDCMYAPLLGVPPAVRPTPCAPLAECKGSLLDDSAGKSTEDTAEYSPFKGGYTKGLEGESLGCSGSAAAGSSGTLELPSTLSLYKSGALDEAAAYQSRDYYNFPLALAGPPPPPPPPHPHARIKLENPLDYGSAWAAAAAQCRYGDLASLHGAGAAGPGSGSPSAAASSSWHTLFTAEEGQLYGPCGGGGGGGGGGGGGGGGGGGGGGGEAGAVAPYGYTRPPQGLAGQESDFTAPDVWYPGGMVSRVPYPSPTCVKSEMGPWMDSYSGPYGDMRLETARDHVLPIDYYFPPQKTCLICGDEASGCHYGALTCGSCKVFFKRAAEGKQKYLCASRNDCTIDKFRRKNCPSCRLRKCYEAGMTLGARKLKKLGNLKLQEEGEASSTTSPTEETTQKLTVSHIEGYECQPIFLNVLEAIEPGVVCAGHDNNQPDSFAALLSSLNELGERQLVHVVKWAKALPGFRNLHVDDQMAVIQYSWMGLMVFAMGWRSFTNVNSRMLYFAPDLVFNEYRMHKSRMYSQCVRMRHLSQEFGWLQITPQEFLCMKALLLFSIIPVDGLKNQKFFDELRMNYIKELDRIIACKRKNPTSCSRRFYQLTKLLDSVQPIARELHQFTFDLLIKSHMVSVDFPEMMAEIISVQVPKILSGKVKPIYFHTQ
As to the kind of experiment: Antagonistic activity (IC50) against human androgen receptor (hAR) in co-transfected CV-1 cell. It counts as functional, cell-based.
Conditions: not given; call rule not given here
Regarding `C[C@H]1CC[C@H]2Nc3cc4nc(O)cc(C(F)(F)F)c4cc3[C@H]2C1`, the IC50 entry is on record as “Not Active”.
Consider `Cn1c(=O)cc(C(F)(F)F)c2cc3c(cc21)N[C@@H]1CCCC[C@]31C`, for which the IC50 entry is listed as “Not Active”.
On to `C[C@@H]1CNc2cc3nc(O)cc(C(F)(F)F)c3cc21`, for which the IC50 entry was “Not Active”.
In the case of `C[C@@H]1Cc2cc3c(C(F)(F)F)cc(=O)n(C)c3cc2N1`, the IC50 result is on record as “Not Active”.

Another assay concerns the target T1, Androgen receptor. As to the kind of experiment: Binding affinity against Androgen receptor transfected into COS cells.
Conditions: not given
As for `CN1c2cc3c(cc2[C@@]2(C)CCCC[C@@H]12)c(C(F)(F)F)cc(=O)n3C`, the Ki was 97 nM.
Still for that read-out and setting: then `C[C@H]1Nc2cc3c(cc2C1(C)C)c(C(F)(F)F)cc(=O)n3C`, with 9 nM.
Same read-out and setting: then `C[C@H]1CC[C@H]2Nc3cc4nc(O)cc(C(F)(F)F)c4cc3[C@H]2C1`, with 23 nM; and `CCn1c(=O)cc(C(F)(F)F)c2cc3c(cc21)N[C@@H]1CCCC[C@H]31`, with 194 nM.
In turn, `C[C@H]1CC[C@@H]2[C@H](C1)c1cc3c(C(F)(F)F)cc(=O)n(C)c3cc1N2C` registered a Ki of 78 nM.
Take `Cn1c(=O)cc(C(F)(F)F)c2cc3c(cc21)N[C@@H]1CCCC[C@]31C`: the Ki turned out to be 9 nM.
For `C[C@@H]1c2cc3c(C(F)(F)F)cc(=O)n(C)c3cc2N[C@@H]1C`, the Ki came to 10 nM.
On the same count and under the same terms, under `C[C@@H]1CNc2cc3nc(O)cc(C(F)(F)F)c3cc21` stands 17 nM.
`C[C@@H]1Cc2cc3c(C(F)(F)F)cc(=O)n(C)c3cc2N1` had a Ki of 9 nM.
As for `C[C@H]1N(C)c2cc3c(cc2C1(C)C)c(C(F)(F)F)cc(=O)n3C`, the Ki worked out at 33 nM.
`CC1(C)CNc2cc3nc(O)cc(C(F)(F)F)c3cc21`: the Ki is 28 nM. The Ki values of the last two compounds are within 1.5-fold of each other.
As to `C[C@H]1Nc2cc3[nH]c(=O)cc(C(F)(F)F)c3cc2C1(C)C`, the Ki worked out at 21 nM.
`CCCN1c2cc3c(cc2[C@H]2CCCC[C@H]21)c(C(F)(F)F)cc(=O)n3C` gave a Ki of 63 nM. Against the preceding compound, the Ki is about 3-fold higher.

Another assay concerns the target T1, Androgen receptor. As to the kind of experiment: Agonistic activity (EC50) against human androgen receptor (hAR) in co-transfected CV-1 cell.
Conditions: not given
The assay is classed as functional, cell-based.
With `C[C@H]1Nc2cc3c(cc2C1(C)C)c(C(F)(F)F)cc(=O)n3C`, the EC50 is 380 nM.
As to `C[C@H]1CC[C@H]2Nc3cc4nc(O)cc(C(F)(F)F)c4cc3[C@H]2C1`, the EC50 worked out at 64 nM.
In turn, `Cn1c(=O)cc(C(F)(F)F)c2cc3c(cc21)N[C@@H]1CCCC[C@]31C` came in with an EC50 of 33 nM.
As for `C[C@@H]1c2cc3c(C(F)(F)F)cc(=O)n(C)c3cc2N[C@@H]1C`, the half-maximal effective concentration (EC50) worked out at 15 nM.
Same read-out and setting: then `C[C@@H]1CNc2cc3nc(O)cc(C(F)(F)F)c3cc21`, with 62 nM.
As for `C[C@@H]1Cc2cc3c(C(F)(F)F)cc(=O)n(C)c3cc2N1`, the EC50 is 20 nM.
The compound `CC1(C)CNc2cc3nc(O)cc(C(F)(F)F)c3cc21` registered an EC50 of 42 nM. Against the preceding compound, the EC50 is about 2.1-fold higher.
Same read-out and setting: then `C[C@H]1Nc2cc3[nH]c(=O)cc(C(F)(F)F)c3cc2C1(C)C`, with 99 nM.
Turning to `CCCN1c2cc3c(cc2[C@H]2CCCC[C@H]21)c(C(F)(F)F)cc(=O)n3C`, the EC50 stood at 324 nM.

The next assay addresses T1, Androgen receptor.
Conditions: not given
As for `CN1c2cc3c(cc2[C@@]2(C)CCCC[C@@H]12)c(C(F)(F)F)cc(=O)n3C`, it took 53 nM to reach half-maximal inhibition (IC50).
As for `C[C@H]1Nc2cc3c(cc2C1(C)C)c(C(F)(F)F)cc(=O)n3C`, half-maximal inhibition (IC50) required 22 nM. Against the preceding compound, the IC50 is about 2.4-fold lower.
On the same count and under the same terms, under `CCn1c(=O)cc(C(F)(F)F)c2cc3c(cc21)N[C@@H]1CCCC[C@H]31` stands 230 nM; under `C[C@H]1CC[C@@H]2[C@H](C1)c1cc3c(C(F)(F)F)cc(=O)n(C)c3cc1N2C`, 54 nM.
`C[C@@H]1c2cc3c(C(F)(F)F)cc(=O)n(C)c3cc2N[C@@H]1C` showed an IC50 of 9180 nM.
For `C[C@H]1N(C)c2cc3c(cc2C1(C)C)c(C(F)(F)F)cc(=O)n3C`, the IC50 amounted to 56 nM. This IC50 is about 160-fold lower than that of the compound before.
Same read-out and setting: under `CC1(C)CNc2cc3nc(O)cc(C(F)(F)F)c3cc21` stands 10 nM.
With `C[C@H]1Nc2cc3[nH]c(=O)cc(C(F)(F)F)c3cc2C1(C)C`, it took 48 nM to reach half-maximal inhibition (IC50).
Compound `CCCN1c2cc3c(cc2[C@H]2CCCC[C@H]21)c(C(F)(F)F)cc(=O)n3C` gave a half-maximal inhibitory concentration (IC50) of 27 nM.

The target of the next assay is T1, Androgen receptor. To be noted: cv-1.
Description: Agonistic activity against human androgen receptor (hAR) in co-transfected CV-1 cell
With `CN1c2cc3c(cc2[C@@]2(C)CCCC[C@@H]12)c(C(F)(F)F)cc(=O)n3C`, the EC50 result was “Not Active”.
Same read-out and setting: then `CCn1c(=O)cc(C(F)(F)F)c2cc3c(cc21)N[C@@H]1CCCC[C@H]31`, with “Not Active”; and `C[C@H]1CC[C@@H]2[C@H](C1)c1cc3c(C(F)(F)F)cc(=O)n(C)c3cc1N2C`, with “Not Active”; and `C[C@H]1N(C)c2cc3c(cc2C1(C)C)c(C(F)(F)F)cc(=O)n3C`, with “Not Active”.

For the origin of these results see ChEMBL document CHEMBL1130772, “New nonsteroidal androgen receptor modulators based on 4-(trifluoromethyl)-2(1H)-pyrrolidino[3,2-g] quinolinone” (Bioorg Med Chem Lett, 1998).
